Experimental findings from ChEMBL document CHEMBL1134297, “5,6-Diphenylpyridazine derivatives as acyl-CoA:cholesterol acyltransferase inhibitors” (J Med Chem, 2001) are described below.

Several values for one entry are separate records, joined by “and”; a condition that tells them apart may be missing. Identical values can stand only once.

Sequence of Sterol O-acyltransferase 1 (Mus musculus) (Q61263 whole entry, looked up): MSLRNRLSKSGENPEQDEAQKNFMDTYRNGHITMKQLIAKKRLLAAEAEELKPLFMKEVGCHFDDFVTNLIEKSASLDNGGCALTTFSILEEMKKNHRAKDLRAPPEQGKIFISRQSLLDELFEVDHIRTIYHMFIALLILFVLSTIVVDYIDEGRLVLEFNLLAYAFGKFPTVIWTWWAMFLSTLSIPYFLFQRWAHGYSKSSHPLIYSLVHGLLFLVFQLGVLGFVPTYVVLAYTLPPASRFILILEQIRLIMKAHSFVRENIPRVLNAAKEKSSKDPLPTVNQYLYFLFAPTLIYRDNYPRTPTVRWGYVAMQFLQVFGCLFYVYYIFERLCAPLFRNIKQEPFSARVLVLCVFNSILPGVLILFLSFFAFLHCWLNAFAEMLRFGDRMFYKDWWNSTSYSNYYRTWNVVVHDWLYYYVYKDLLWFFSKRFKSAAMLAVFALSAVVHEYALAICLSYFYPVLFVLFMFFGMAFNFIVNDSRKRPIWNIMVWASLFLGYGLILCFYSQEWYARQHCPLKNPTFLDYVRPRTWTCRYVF

The first assay concerns the target Sterol O-acyltransferase 1 (Mus musculus) (UniProt Q61263). The experiment in a line: Inhibitory activity against Acyl-coenzyme A:cholesterol acyltransferase in macrophages.
The IC50 is the concentration that gives 50% inhibition. Consider `CCCCCCCOc1cc(-c2ccccc2)c(-c2ccccc2)nn1`, for which the IC50 came to 5.1 µM.

Take `CCCCCCCCNc1cc(-c2ccccc2)c(-c2ccccc2)nn1`: the 50% inhibitory concentration (IC50) was 3.2 µM.

For the next assay, the target named is T1, Sterol O-acyltransferase 1 (Rattus norvegicus, UniProt O70536).
T1 sequence (O70536 whole entry): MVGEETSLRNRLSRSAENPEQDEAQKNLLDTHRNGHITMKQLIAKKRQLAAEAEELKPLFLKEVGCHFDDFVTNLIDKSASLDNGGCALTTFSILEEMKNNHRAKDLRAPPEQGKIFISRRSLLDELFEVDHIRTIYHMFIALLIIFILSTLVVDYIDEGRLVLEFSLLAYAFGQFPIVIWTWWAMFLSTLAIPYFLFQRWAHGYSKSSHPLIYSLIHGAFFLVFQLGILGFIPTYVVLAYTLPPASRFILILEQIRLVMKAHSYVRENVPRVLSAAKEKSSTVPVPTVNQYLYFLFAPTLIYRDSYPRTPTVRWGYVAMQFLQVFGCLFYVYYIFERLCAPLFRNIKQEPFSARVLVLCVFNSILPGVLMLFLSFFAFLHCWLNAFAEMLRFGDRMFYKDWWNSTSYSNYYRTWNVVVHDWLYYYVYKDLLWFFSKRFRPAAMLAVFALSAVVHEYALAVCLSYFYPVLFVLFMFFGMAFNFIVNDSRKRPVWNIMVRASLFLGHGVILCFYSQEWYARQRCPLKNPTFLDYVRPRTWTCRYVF
The assay is described as follows: In vitro acyl-coenzyme A:cholesterol acyltransferase inhibition in rat liver microsomes. Details: species or system Microsome. A general note: Liver microsomes are vesicles of endoplasmic reticulum, rich in cytochrome P450 enzymes.
Compound `CCCCCCSc1cc(-c2ccccc2)c(-c2ccccc2)nn1` gave a half-maximal inhibitory concentration (IC50) of 62 µM.

`CC(C)n1nc(-c2ccccc2)c(-c2ccccc2)cc1=O` displayed an IC50 of 152 µM.

Consider `O=C(O)CCCCCCCSc1cc(-c2ccccc2)c(-c2ccccc2)nn1`, for which the IC50 is more than 300 µM.

Compound `O=C(O)CCCCCCSc1cc(-c2ccccc2)c(-c2ccccc2)nn1` had an IC50 of more than 300 µM.

The compound `CCCCCCCCC[S+]([O-])c1cc(-c2ccccc2)c(-c2ccccc2)nn1` (stereo unspecified) showed an IC50 of 87 µM.

`CCCCCOc1cc(-c2ccccc2)c(-c2ccccc2)nn1` returned an IC50 of 73 µM.

For `CCCCCCCCn1nc(-c2ccccc2)c(-c2ccccc2)cc1=O`, it took 80 µM to reach half-maximal inhibition (IC50).

Regarding `CCCCCCC[S+]([O-])c1cc(-c2ccccc2)c(-c2ccccc2)nn1` (stereo unspecified), inhibition was half-maximal at 77 µM (IC50).

The compound `CCCCCCn1nc(-c2ccccc2)c(-c2ccccc2)cc1=O` had an IC50 of 57 µM.

`CCCCCCOc1cc(-c2ccccc2)c(-c2ccccc2)nn1` displayed a half-maximal inhibitory concentration (IC50) of 72 µM.

As to `CCCCCCCOc1cc(-c2ccccc2)c(-c2ccccc2)nn1`, it took 58 µM to reach half-maximal inhibition (IC50).

Consider `O=C(O)CCCCCCCCSc1cc(-c2ccccc2)c(-c2ccccc2)nn1`, for which the 50% inhibitory concentration (IC50) was more than 300 µM.

`CCCCCCCS(=O)(=O)c1cc(-c2ccccc2)c(-c2ccccc2)nn1`: half-maximal inhibition (IC50) was put at 49 µM.

As for `CCCCCCCCCS(=O)(=O)c1cc(-c2ccccc2)c(-c2ccccc2)nn1`, the IC50 came to 76 µM.

`O=c1cc(-c2ccccc2)c(-c2ccccc2)nn1C1CCCCC1` gave an IC50 of more than 300 µM.

For `CCCCCCCCCOc1cc(-c2ccccc2)c(-c2ccccc2)nn1`, 180 µM corresponded to half-maximal inhibition (IC50).

Regarding `O=c1cc(-c2ccccc2)c(-c2ccccc2)nn1C1CCCC1`, the half-inhibitory concentration (IC50) amounted to 119 µM.

The compound `O=C(O)CCCCCCn1nc(-c2ccccc2)c(-c2ccccc2)cc1=O` registered an IC50 of more than 300 µM.

As to `CCCCCCCCCSc1cc(-c2ccccc2)c(-c2ccccc2)nn1`, half-maximal inhibition (IC50) required 116 µM.

For the compound `CCCCCC[S+]([O-])c1cc(-c2ccccc2)c(-c2ccccc2)nn1` (stereo unspecified), the IC50 stood at 75 µM.

`CCCCCCCCOc1cc(-c2ccccc2)c(-c2ccccc2)nn1` returned an IC50 of 104 µM.

Consider `CCCCCCCCCn1nc(-c2ccccc2)c(-c2ccccc2)cc1=O`, for which the IC50 came out at 85 µM.

`CCCCCCCCSc1cc(-c2ccccc2)c(-c2ccccc2)nn1` registered an IC50 of 130 µM.

`CCCCCCn1nc(-c2ccccc2)c(-c2ccccc2)c(C)c1=O` registered a concentration for half-maximal inhibition (IC50) of 56 µM.

Regarding `CCCCCCCn1nc(-c2ccccc2)c(-c2ccccc2)cc1=O`, the midpoint of inhibition, the IC50, lay at 86 µM.

As to `CCCCCCCCS(=O)(=O)c1cc(-c2ccccc2)c(-c2ccccc2)nn1`, it took 36 µM to reach half-maximal inhibition (IC50).

Turning to `CCCCCCCC[S+]([O-])c1cc(-c2ccccc2)c(-c2ccccc2)nn1` (stereo unspecified), half-maximal inhibition (IC50) required 92 µM.

`CCCCCCNc1cc(-c2ccccc2)c(-c2ccccc2)nn1` had a half-inhibitory concentration (IC50) of 24 µM.

On to `CCCCCCCNc1cc(-c2ccccc2)c(-c2ccccc2)nn1`, for which half-maximal inhibition (IC50) was put at 55 µM.

Regarding `CCCn1nc(-c2ccccc2)c(-c2ccccc2)cc1=O`, half-maximal inhibition (IC50) was put at 230 µM.

Take `CCCCCCS(=O)(=O)c1cc(-c2ccccc2)c(-c2ccccc2)nn1`: half-maximal inhibition (IC50) was put at 60 µM.

Take `O=C(O)CCCCCCCn1nc(-c2ccccc2)c(-c2ccccc2)cc1=O`: the IC50 is more than 300 µM.

Compound `CCCCn1nc(-c2ccccc2)c(-c2ccccc2)cc1=O` displayed an IC50 of 176 µM.

`CCCCCn1nc(-c2ccccc2)c(-c2ccccc2)cc1=O` showed an IC50 of 66 µM.

`CCCCCC(=O)Nc1cc(-c2ccccc2)c(-c2ccccc2)nn1` yielded a half-inhibitory concentration (IC50) of more than 300 µM.

In turn, `CCCCCCCCNc1cc(-c2ccccc2)c(-c2ccccc2)nn1` came in with an IC50 of 40 µM.

The compound `CCCCCCCSc1cc(-c2ccccc2)c(-c2ccccc2)nn1` had an IC50 of 76 µM.

Compound `O=C(O)CCCCCSc1cc(-c2ccccc2)c(-c2ccccc2)nn1` returned a 50% inhibitory concentration (IC50) of more than 300 µM.

For a further assay, the species on record is Mus musculus. The experiment in a line: Inhibition of cholesterol esterification in macrophages (Cholesterol efflux). The format is functional.
Regarding `CCCCCCCOc1cc(-c2ccccc2)c(-c2ccccc2)nn1`, the Esterification inhibitory concentration is 12.6 µM and 11.8 µM.

Consider `CCCCCCCCCNc1cc(-c2ccccc2)c(-c2ccccc2)nn1`, for which the Esterification inhibitory concentration was 14.1 µM and 13.8 µM.

As to `CCCCCCCCNc1cc(-c2ccccc2)c(-c2ccccc2)nn1`, the Esterification inhibitory concentration is 12.9 µM and 11.5 µM.

System in the next assay: not listed separately
The assay is described as follows: Percent inhibition of cell viability in murine macrophages. Also noted: concentration or dose not given beside the values. The assay is classed as functional, Mus musculus.
As a reminder, the Inhibition is the percentage by which the read-out fell short of the control. `CCCCCCCOc1cc(-c2ccccc2)c(-c2ccccc2)nn1` displayed an Inhibition of less than 1%.

Consider `CCCCCCCCCNc1cc(-c2ccccc2)c(-c2ccccc2)nn1`, for which the Inhibition was 5.9% and 2.7% and <1%.

In the case of `CCCCCCCCNc1cc(-c2ccccc2)c(-c2ccccc2)nn1`, the Inhibition was 11.5% and 9.9% and 3.7% and 4.8%.
